Measurements published in patent publication US10072011B2, “Substituted bridged urea analogs as sirtuin modulators” (GlaxoSmithKline Intellectual Property (No.2) Limited, priority 2014, dated 2018).

Biological target: T1, SIRT1 (Homo sapiens, UniProt Q96EB6)
T1 sequence (Q96EB6 1-747): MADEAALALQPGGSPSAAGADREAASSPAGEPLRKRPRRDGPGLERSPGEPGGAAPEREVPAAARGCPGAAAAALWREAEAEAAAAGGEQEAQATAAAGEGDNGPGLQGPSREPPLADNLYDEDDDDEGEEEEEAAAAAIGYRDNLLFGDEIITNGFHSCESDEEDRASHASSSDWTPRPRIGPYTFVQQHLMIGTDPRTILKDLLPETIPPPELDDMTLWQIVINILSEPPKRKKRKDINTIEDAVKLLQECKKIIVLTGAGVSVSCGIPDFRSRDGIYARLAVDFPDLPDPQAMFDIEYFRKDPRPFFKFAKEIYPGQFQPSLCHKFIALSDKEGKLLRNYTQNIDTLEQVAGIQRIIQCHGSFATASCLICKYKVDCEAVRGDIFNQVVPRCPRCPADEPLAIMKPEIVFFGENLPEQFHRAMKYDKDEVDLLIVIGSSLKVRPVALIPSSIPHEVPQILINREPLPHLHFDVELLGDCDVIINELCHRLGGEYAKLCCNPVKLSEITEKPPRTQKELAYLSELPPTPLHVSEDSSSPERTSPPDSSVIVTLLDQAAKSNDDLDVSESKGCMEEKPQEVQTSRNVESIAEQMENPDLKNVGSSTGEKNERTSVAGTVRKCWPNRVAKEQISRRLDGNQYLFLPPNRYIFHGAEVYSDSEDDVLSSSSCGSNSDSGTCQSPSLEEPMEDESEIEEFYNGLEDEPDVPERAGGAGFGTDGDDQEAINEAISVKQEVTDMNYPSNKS
Assay: Trp mass spectrometry assay of SIRT1 activation (Ac-R-H-K-K(Ac)-W-NH2 peptide)
Type: biochemical
Conditions: Trp peptide 0.5 μM, 120 μM βNAD+, 10 nM SIRT1, 25 min at 25° C.; for Emax: 25 min, relative to control (100%), read-out: TRP MAX RESP (percent maximum fold activation)
Summary of the method: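 N-terminal His-tagged human SIRT1, expressed in BL21(DE3) and purified, was incubated 25 min with an acetylated Trp peptide and NAD plus test compound at varying concentrations, then quenched with formic acid. OAADPR or deacetylated peptide was quantified by mass spectrometry versus compound-free control; EC1.5 is the concentration giving 50% activity increase, with percent maximum activation.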

| SMILES | Emax | TRP Activity (EC1.5, concentration of test compound that results in 150% activation of SIRT1) |
| --- | --- | --- |
| C[C@@H](NC(=O)c1ccc2c(n1)N(C(=O)Nc1cccnn1)[C@H]1CCN2C1)C(F)(F)F [Example 77, (4S)—N5-(pyridazin-3-yl)-N7-((R)-1,1,1-trifluoropropan-2-yl)-3,4-dihydro-1,4-methanopyrido[2,3-b][1,4]diazepine-5,7(2H)-dicarboxamide] | > 150% | A (EC1.5<1 μM) |
| O=C(N[C@H](C1CC1)C(F)(F)F)c1ccc2c(n1)N(C(=O)Nc1ccccn1)[C@H]1CCN2C1 [Example 46, (4S)—N7-((R)-1-cyclopropyl-2,2,2-trifluoroethyl)-N5-(pyridin-2-yl)-3,4-dihydro-1,4-methanopyrido[2,3-b][1,4]diazepine-5,7(2H)-dicarboxamide] | > 150% | A (EC1.5<1 μM) |
| O=C(NCC1(O)CC1)c1ccc2c(n1)N(C(=O)Nc1ccccn1)[C@H]1CCN2C1 [Example 36, (4S)—N7-((1-hydroxycyclopropyl)methyl)-N5-(pyridin-2-yl)-3,4-dihydro-1,4-methanopyrido[2,3-b][1,4]diazepine-5,7(2H)-dicarboxamide] | > 150% | B (EC1.5 1-25 μM) |
| O=C(NC1CCOCC1)c1ccc2c(n1)N(C(=O)Nc1ccccn1)[C@H]1CCN2C1 [Example 4, (4S)—N-5-(pyridin-2-yl)-N-7-(tetrahydro-2H-pyran-4-yl)-3,4-dihydro-1,4-methanopyrido [2,3-b] [1, 4] diazepine-5, 7(2H)-dicarboxamide] | > 150% | B (EC1.5 1-25 μM) |

More lines, now with the values ahead:

| Emax | TRP Activity (EC1.5, concentration of test compound that results in 150% activation of SIRT1) | SMILES |
| --- | --- | --- |
| < 150% | A (EC1.5<1 μM) | C[C@@H](NC(=O)c1ccc2c(n1)N(C(=O)Nc1cc(C(=O)NC3CC3)ccn1)[C@H]1CCN2C1)C(F)(F)F [Example 305, (4S)—N5-(4-(cyclopropylcarbamoyl)pyridin-2-yl)-N7-((R)-1,1,1-trifluoropropan-2-yl)-3,4-dihydro-1,4-methanopyrido[2,3-b][1,4]diazepine-5,7(2H)-dicarboxamide] |
| > 150% | A (EC1.5<1 μM) | O=C(NCCC(F)(F)F)c1ccc2c(n1)N(C(=O)Nc1ccccn1)[C@H]1CCN2C1 [Example 124, (4S)—N5-(pyridin-2-yl)-N7-(3,3,3-trifluoropropyl)-3,4-dihydro-1,4-methanopyrido[2,3-b][1,4]diazepine-5,7(2H)-dicarboxamide] |
| < 150% | A (EC1.5<1 μM) | C[C@@H](NC(=O)c1ccc2c(n1)N(C(=O)Nc1cc(NS(C)(=O)=O)ccn1)[C@H]1CCN2C1)C(F)(F)F [Example 324, (4S)—N5-(4-(methylsulfonamido)pyridin-2-yl)-N7-((R)-1,1,1-trifluoropropan-2-yl)-3,4-dihydro-1,4-methanopyrido[2,3-b][1,4]diazepine-5,7(2H)-dicarboxamide] |
| > 150% | B (EC1.5 1-25 μM) | C#CC(C)(C)NC(=O)c1ccc2c(n1)N(C(=O)Nc1ccccn1)[C@H]1CCN2C1 [Example 253, (4S)—N7-(2-methylbut-3-yn-2-yl)-N5-(pyridin-2-yl)-3,4-dihydro-1,4-methanopyrido[2,3-b][1,4]diazepine-5,7(2H)-dicarboxamide] |
| > 150% | A (EC1.5<1 μM) | Cc1cc(C(=O)NCC(F)(F)F)nc2c1N1CC[C@@H](C1)N2C(=O)Nc1ccccn1 [Example 287, (4S)-9-methyl-N5-(pyridin-2-yl)-N7-(2,2,2-trifluoroethyl)-3,4-dihydro-1,4-methanopyrido[2,3-b][1,4]diazepine-5,7(2H)-dicarboxamide] |
